Assays:
[1] = test system: Miapaca-2 KRAS G12C + R68S; test: Stable KRAS mutant cell line viability assay (CellTiter-Glo); format: cell-based; conditions: Miapaca-2 mutant cells, 3 d
Description: (§1) The aim of the study was to determine the potency and efficacy of compounds for cell proliferation using CellTiter-Glo® (CTG) Luminescent Cell Viability Assay (Promega Corp., Madison, WI). We cloned 14 KRAS^G12C variant sequences with secondary mutations (V8A, V9Y, S17E, T58I, A59T, S65W, R68S, D69P, M72I, D92R, H95N, Y96D, Q99W and F156L) into the Miapaca-2. Totally 14 stable Miapaca-2 mutant cell lines were established through lentivirus infection. For the cell viability assay, cells were dosed with compounds in a 9-point dose-response using a 4 fold dilution series at a top dose of 10 μM. KRAS mutant cells were maintained in DMEM+10% FBS+2.5% HI Horse serum+1% PS+1 μg/mL Puromycin and seeded into 96-well plates at 800-1,500 cells per well 24 h before compound addition and then incubated with compound for 3 d before assaying viability (CellTiter-Glo, Promega). Assays were performed in biological duplicates. Nonlinear regression curves were fitted using Xfit. IC50 (absolute IC50) is the dose at which the estimated viability is 50% relative to untreated wells.

[2] = test system: Miapaca-2 KRAS G12C + V8A; test: as above; format: cell-based; conditions: Miapaca-2 mutant cells, 3 d
Description: as §1

[3] = test system: Miapaca-2 KRAS G12C + T58I; test: as above; format: cell-based; conditions: Miapaca-2 mutant cells, 3 d
Description: as §1

[4] = test system: Miapaca-2 KRAS G12C + M72I; test: as above; format: cell-based; conditions: Homo sapiens, MIA PaCa-2, 72 h; Miapaca-2 mutant cells, 3 d
Description: as §1

[5] = test system: Miapaca-2 KRAS G12C + Y96D; test: as above; format: cell-based; conditions: Miapaca-2 mutant cells, 3 d
Description: as §1

[6] = test system: Miapaca-2 KRAS G12C + A59T; test: as above; format: cell-based; conditions: Miapaca-2 mutant cells, 3 d
Description: as §1

[7] = test system: Miapaca-2 KRAS G12C + H95N; test: as above; format: cell-based; conditions: Miapaca-2 mutant cells, 3 d
Description: as §1

[8] = test system: Miapaca-2 KRAS G12C + V9Y; test: as above; format: cell-based; conditions: Miapaca-2 mutant cells, 3 d
Description: as §1

[9] = test system: Miapaca-2 KRAS G12C + D92R; test: as above; format: cell-based; conditions: Miapaca-2 mutant cells, 3 d
Description: as §1

[10] = test system: Miapaca-2 KRAS G12C + Q99W; test: as above; format: cell-based; conditions: Miapaca-2 mutant cells, 3 d
Description: as §1

[11] = test system: NCI-H358 cells (KRAS G12C); test: Cell viability assay (Cell Counting Kit-8, 3-day); format: cell-based, human; conditions: Homo sapiens, NCI-H358, 72 h, NCI-H358, 72 hrs incubation
Outline: (§2)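 72-hr compound treatment, 0.5% DMSO final; NCI-H358 seeded 5,000 cells/well, AGS and SW620 2,000 cells/well. Endpoint: CCK-8, 2-hr development, OD450 minus OD650.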

SW620 cells (KRAS G12V) = test: Cell viability assay (Cell Counting Kit-8, 3-day); format: cell-based, human; conditions: Homo sapiens, SW-620; SW620, 72 hrs incubation
Outline: as §2

AGS cells (KRAS G12D) = test: Cell viability assay (Cell Counting Kit-8, 3-day); format: cell-based, human; conditions: Homo sapiens, 72 h, 72 hrs incubation
Outline: as §2

CO[C@@H](C)c1ncc(N2CCN(C)CC2)cc1-c1c2c3cc(cc4c3n1CCC4)-c1csc(n1)C[C@H](NC(=O)[C@H]1[C@H](C)[C@@H]1C)C(=O)N1CCC[C@H](N1)C(=O)OCC(C)(C)C2 (atropisomer, axis not shown; (M)) [Example 24, (1r,2R,3S)-N-[(7S,13S)-(20M)-20-[2-[(1S)-1-methoxyethyl]-5-(4-methylpiperazin-1-yl)-3-pyridyl]-17,17-dimethyl-8,14-dioxo-15-oxa-4-thia-9,21,30,31-tetrazahexacyclo[23.3.1.1^2,5.1^9,13.0^19,27.0^21,26]hentriaconta-1 (28),2,5 (31), 19,25 (29),26-hexaen-7-yl]-2,3-dimethyl-cyclopropanecarboxamide]
IC50 [1]: 2 nM | IC50 [2]: 1 nM | IC50 [3]: 2 nM | IC50 [4]: 1 nM | IC50 [5]: 2 nM | IC50 [6]: 6 nM | IC50 [7]: 1 nM | IC50 [8]: 1 nM | IC50 [9]: 2 nM | IC50 [10]: 5 nM | IC50 [11]: 1.3 nM | IC50 (SW620 cells (KRAS G12V)): 0.3 nM | IC50 (AGS cells (KRAS G12D)): 4.7 nM

— patent US20240417410A1, “TRICYCLIC COMPOUNDS FOR THE TREATMENT OF CANCER” (Hoffmann-La Roche Inc., priority 2023, published 2024)
